In PubChem BioAssay (NCI):
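96-well plates; 48 h exposure; 5 concentrations. Endpoints by linear interpolation between flanking doses. Not reached: highest tested concentration assigned. TGI marks complete inhibition of growth.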

Columns and labels:
Experiment in all cases: inhibition of tumour cell growth, NCI panel, 48 h
A498 renal = system: A498 renal
RXF 393 renal = system: RXF 393 renal
LXFL 529 NSCLC = system: LXFL 529 NSCLC
TK-10 renal = system: TK-10 renal
OVCAR-8 ovarian = system: OVCAR-8 ovarian
SNB-78 CNS = system: SNB-78 CNS
SK-MEL-5 melanoma = system: SK-MEL-5 melanoma
MOLT-4 leukemia = system: MOLT-4 leukemia
LOX IMVI melanoma = system: LOX IMVI melanoma
CAKI-1 renal = system: CAKI-1 renal
NCI-H460 lung = system: NCI-H460 lung
K-562 leukemia = system: K-562 leukemia
SN12C renal = system: SN12C renal
HOP-62 NSCLC = system: HOP-62 NSCLC
DMS 273 small cell lung = system: DMS 273 small cell lung
786-0 renal = system: 786-0 renal
XF 498 CNS = system: XF 498 CNS
SK-OV-3 ovarian = system: SK-OV-3 ovarian
DMS 114 small cell lung = system: DMS 114 small cell lung
UACC-257 melanoma = system: UACC-257 melanoma
SK-MEL-2 melanoma = system: SK-MEL-2 melanoma
A549 NSCLC = system: A549 NSCLC
U251 CNS = system: U251 CNS
EKVX NSCLC = system: EKVX NSCLC
ACHN renal = system: ACHN renal
SF-295 CNS = system: SF-295 CNS
SF-539 CNS = system: SF-539 CNS
KM20L2 colon = system: KM20L2 colon
MALME-3M melanoma = system: MALME-3M melanoma
M19-MEL melanoma = system: M19-MEL melanoma
SK-MEL-28 melanoma = system: SK-MEL-28 melanoma
SW-620 colon = system: SW-620 colon
SR leukemia = system: SR leukemia
SF-268 CNS = system: SF-268 CNS
UACC-62 melanoma = system: UACC-62 melanoma
SNB-19 CNS = system: SNB-19 CNS
NCI-H226 lung = system: NCI-H226 lung
OVCAR-4 ovarian = system: OVCAR-4 ovarian
KM12 colon = system: KM12 colon
OVCAR-5 ovarian = system: OVCAR-5 ovarian
HT29 colon = system: HT29 colon
UO-31 renal = system: UO-31 renal
DLD-1 colon = system: DLD-1 colon
CCRF-CEM leukemia = system: CCRF-CEM leukemia
NCI-H23 lung = system: NCI-H23 lung
HOP-92 NSCLC = system: HOP-92 NSCLC
HL-60(TB) leukemia = system: HL-60(TB) leukemia
SNB-75 CNS = system: SNB-75 CNS
HCT-116 colon = system: HCT-116 colon
M14 melanoma = system: M14 melanoma
OVCAR-3 ovarian = system: OVCAR-3 ovarian
IGROV1 ovarian = system: IGROV1 ovarian
NCI-H522 lung = system: NCI-H522 lung
HOP-18 NSCLC = system: HOP-18 NSCLC
COLO 205 colon = system: COLO 205 colon
HCC-2998 colon = system: HCC-2998 colon
HCT-15 colon = system: HCT-15 colon
RPMI-8226 leukemia = system: RPMI-8226 leukemia

Measured: TGI

COc1cc(OC)c(C#N)c(OC)c1C
> 100 µM: A498 renal | RXF 393 renal | LXFL 529 NSCLC | TK-10 renal | OVCAR-8 ovarian | SNB-78 CNS | SK-MEL-5 melanoma | MOLT-4 leukemia | LOX IMVI melanoma | CAKI-1 renal | NCI-H460 lung | K-562 leukemia | SN12C renal | HOP-62 NSCLC | DMS 273 small cell lung | 786-0 renal | XF 498 CNS | SK-OV-3 ovarian | DMS 114 small cell lung | UACC-257 melanoma | SK-MEL-2 melanoma | A549 NSCLC | U251 CNS | EKVX NSCLC | ACHN renal | SF-295 CNS | SF-539 CNS | KM20L2 colon | MALME-3M melanoma | M19-MEL melanoma | SK-MEL-28 melanoma | SW-620 colon | SR leukemia | SF-268 CNS | UACC-62 melanoma | SNB-19 CNS | NCI-H226 lung | OVCAR-4 ovarian | KM12 colon | OVCAR-5 ovarian | HT29 colon | UO-31 renal | DLD-1 colon | CCRF-CEM leukemia | NCI-H23 lung | HOP-92 NSCLC | HL-60(TB) leukemia

O=C1c2cc3c(cc2[C@@H]2NC4CCCC14O2)OCO3 (stereo not given in full)
> 100 µM: A498 renal | RXF 393 renal | LXFL 529 NSCLC | SNB-75 CNS | TK-10 renal | OVCAR-8 ovarian | SNB-78 CNS | SK-MEL-5 melanoma | MOLT-4 leukemia | HCT-116 colon | CAKI-1 renal | NCI-H460 lung | K-562 leukemia | M14 melanoma | SN12C renal | HOP-62 NSCLC | OVCAR-3 ovarian | DMS 273 small cell lung | 786-0 renal | XF 498 CNS | SK-OV-3 ovarian | DMS 114 small cell lung | UACC-257 melanoma | SK-MEL-2 melanoma | A549 NSCLC | U251 CNS | EKVX NSCLC | ACHN renal | SF-295 CNS | SF-539 CNS | KM20L2 colon | M19-MEL melanoma | SK-MEL-28 melanoma | SW-620 colon | SR leukemia | SF-268 CNS | UACC-62 melanoma | SNB-19 CNS | NCI-H226 lung | OVCAR-4 ovarian | KM12 colon | OVCAR-5 ovarian | HT29 colon | UO-31 renal | IGROV1 ovarian | DLD-1 colon | NCI-H522 lung | CCRF-CEM leukemia | NCI-H23 lung | HOP-92 NSCLC | HL-60(TB) leukemia

CCSc1nc(-c2ccc(OC)cc2)c(C#N)c(=O)n1C1OCC(OC(C)=O)C(OC(C)=O)C1OC(C)=O (stereo not given)
> 100 µM: A498 renal | RXF 393 renal | LXFL 529 NSCLC | SNB-75 CNS | TK-10 renal | SNB-78 CNS | SK-MEL-5 melanoma | MOLT-4 leukemia | HCT-116 colon | CAKI-1 renal | NCI-H460 lung | K-562 leukemia | M14 melanoma | HOP-18 NSCLC | SN12C renal | HOP-62 NSCLC | COLO 205 colon | DMS 273 small cell lung | 786-0 renal | SK-OV-3 ovarian | DMS 114 small cell lung | UACC-257 melanoma | SK-MEL-2 melanoma | A549 NSCLC | U251 CNS | EKVX NSCLC | ACHN renal | SF-295 CNS | SF-539 CNS | KM20L2 colon | MALME-3M melanoma | M19-MEL melanoma | SK-MEL-28 melanoma | SW-620 colon | SR leukemia | SF-268 CNS | UACC-62 melanoma | HCC-2998 colon | SNB-19 CNS | NCI-H226 lung | OVCAR-4 ovarian | KM12 colon | OVCAR-5 ovarian | HT29 colon | HCT-15 colon | UO-31 renal | IGROV1 ovarian | RPMI-8226 leukemia | DLD-1 colon | NCI-H522 lung | NCI-H23 lung | HOP-92 NSCLC
